Paper PMC9090388, “Design, synthesis, biological evaluation and QSAR analysis of novel N-substituted benzimidazole derived carboxamides” (Journal of Enzyme Inhibition and Medicinal Chemistry, 2022)
“And” between values parts separate entries of the source, which are not always exact repeats. Identical values can stand only once.

Experiments:
[1] = DPPH free radical scavenging (reducing activity of the stable radical DPPH); type: biochemical; settings: DPPH 50 µM in absolute ethanol; – = did not show any DPPH activity
Protocol: The reducing activity of investigated systems was achieved by the DPPH method according to previously described procedures with modifications to assure the use in a 96-well microplate. Briefly, equal volumes of various concentrations of tested molecules (dissolved in DMSO) were added to the solution of DPPH (final concentration 50 µM in absolute ethanol). Ethanol and DMSO were used as control solutions in line with earlier reports.[27]

[2] = Ferric reducing/antioxidant power (FRAP assay); type: biochemical; settings: triplicate; – = not active in the FRAP assay
Protocol: The FRAP method was carried out according to previously described procedures with some modifications to be compatible with an assay on a 96-well microplate. All results were expressed as Fe^2+ equivalents (Fe^2+ µmol).

HCT116 (colon carcinoma) = assay: Antiproliferative activity in vitro, MTT, 72 h; type: cell-based; settings: Homo sapiens, HCT-116, 72 h, concentration that causes 50% growth inhibition
Protocol: (§1) The experiments were performed on four human cell lines, including HCT 116 (colon carcinoma), H 460 (lung carcinoma), MCF-7 (breast carcinoma) and HEK 293 (human embryonic kidney cells), in line with previously published experimental procedures[10]^,[25]. Briefly, the cells were grown in DMEM medium with the addition of 10% foetal bovine serum (FBS), 2 mM L-glutamine, 100 U/mL penicillin and 100 µg/mL streptomycin, and cultured as monolayers at 37 °C in a humidified atmosphere with 5% CO2. Cells were seeded at 2 × 10^3 cells/well in a standard 96-well microtiter plates and left to attach for 24 h. Next day, a test compound was added in five serial 10-fold dilutions. The rate of cell growth was evaluated after 72 h of incubation with MTT reagent. The obtained results are expressed as IC50 values, calculated from the concentration-response curves using linear regression analysis by fitting the test concentrations that give PG values above and below the reference value (i.e. 50%). Each test was performed in quadruplicate in at least two individual experiments.

MCF-7 (breast carcinoma) = assay: Antiproliferative activity in vitro, MTT, 72 h; type: cell-based; settings: Homo sapiens, MCF7, concentration that causes 50% growth inhibition
Protocol: as §1

[3] = tested on: HEK 293 (human embryonic kidney cells); assay: Antiproliferative/cytotoxic activity in vitro on non-tumour cells, MTT, 72 h; type: cell-based; settings: for IC50: Homo sapiens, HEK293, non-tumour cell line, concentration that causes 50% growth inhibition, 72 h, MTT
Protocol: as §1

Nrf2 = assay: Western blot analysis of Nrf2 in cytoplasmic and nuclear fraction; type: cell-based, human; settings: HCT116 cells, 1 h; 34 at 50 µM, 40 at 5 µM, hydrogen peroxide 4 mM
Protocol: Cell line HCT116 was seeded in 60 mm cell culture dishes (TPP, Switzerland) in a concentration of 9 × 10^5 cells/dish. Next day, the cells were treated with 4 mM hydrogen peroxide as a positive control for ROS induction and with compounds 34 and 40 (50 µM and 5 µM, respectively) for 1 h. Nuclear extracts from the cells were prepared using nuclear extraction buffer kit (Abcam, Cambridge, UK, ab113474) according to the manufacturer instructions. BCA assay (Sigma Aldrich, Taufkirchen, Germany) was performed for the determination of the protein concentration in nuclear and cytoplasm fractions. Denaturation of 1 μg of total proteins in Laemmli SDS loading buffer was performed at 95 °C for 5 min. After loading, 10% SDS poly-acrylamide gel electrophoresis was carried out and then proteins were transferred to nitrocellulose membranes. Afterwards, the membranes were blocked in blocking buffer (ImmobilonBlock – CH (Chemiluminescent Blocker), MerckKGaA, Darmstadt, Germany) and incubated 5 h at room temperature with primary antibody dissolved in ImmobilonBlock – CH (Chemiluminescent Blocker). After the membranes were washed three times for five minutes each with Tris-buffered saline with 0.5% Tween 20 (TBST), they were incubated in the corresponding secondary antibody for 1 h at room temperature or overnight at 4 °C. After washing with TBST, the membranes were processed for enhanced chemiluminescence (ECL) Clarity Max Western ECL Substrate (Bio-Rad Laboratories, Hercules, CA, USA) and captured using Odyssey Fc (LICOR, Bad Homburg, Germany). The primary antibody used was anti-Nrf2, (dilution 1:500, Anti-Nrf2 antibody: ab133347, Abcam), Histon H3 (dilution 1:2000, Anti-H3 antibody: Ab1791, Abcam), β-actin (dilution 1:500, sc-47778, Santa Cruz Biotechnology) and corresponding secondary HRP-conjugated IgG antibody (dilution 1:2000, mouse IgGκ, Santa Cruz Biotechnology).
Figure 5. Nrf2 protein levels in the cytoplasmic and the nuclear fraction of HCT116 cells, assessed by Western blot analysis. […]

H 460 (lung carcinoma) = assay: Antiproliferative activity in vitro, MTT, 72 h; type: cell-based, human; settings: Homo sapiens, NCI-H460, 72 h, concentration that causes 50% growth inhibition; 72 h, MTT
Protocol: as §1

Row | IC50 [1] | IC50 (HCT116 (colon carcinoma)) | IC50 (MCF-7 (breast carcinoma)) | IC50 (H 460 (lung carcinoma)) | SMILES | FRAP [2] | cytotoxicity towards non-tumour cell line compared with tumour cells ([3]; HEK 293 versus tumour cancer cells) | IC50 [3] | translocation of Nrf2 to the nucleus (nuclear expression of Nrf2) (Nrf2)
1 | 11500 ± 1500 µM | ~0.6 µM | 2.2 ± 1.9 µM |  | CC(C)Cn1c(NC(=O)c2ccccc2)nc2ccc(C#N)cc21 [Compound 40, N-(6-Cyano-1-isobutyl-1H-benzo[d]imidazol-2-yl)benzamide] | 203.50 ± 10.53 mmolFe^2+/mmolC | significantly less cytotoxic towards non-tumour cell line HEK 293 | 9.1 ± 1 µM | did not promote the translocation of Nrf2 to the nucleus
2 |  |  |  |  | OO [hydrogen peroxide, reference compound] |  |  |  | significantly higher in the nucleus
3 | ~5680 µM and 5680 µM | 47.6 ± 30 µM | 46.9 ± 35.4 µM | 21.9 ± 2.9 µM | COc1ccc(C(=O)Nc2nc3ccc(C#N)cc3n2C)c(OC)c1 [Compound 34, N-(6-Cyano-1-methyl-1H-benzo[d]imidazol-2-yl)-2,4-dimethoxybenzamide] | 618.10 mmolFe^2+/mmolC and 618.10 ± 66.10 mmolFe^2+/mmolC |  | 93.3 ± 2.3 µM | did not promote the translocation of Nrf2 to the nucleus
